Experimental data published in ChEMBL document CHEMBL1135171, “Discovery of potent and selective small molecule NPY Y5 receptor antagonists” (Bioorg Med Chem Lett, 2002).
pKi: −log10 of the molar value.

Tests used:
[1] = target: T1, Neuropeptide Y receptor type 1 (Homo sapiens, UniProt P25929); assay: Tested for radioligand binding affinity against membranes from COS-7 cells transiently transfected with Neuropeptide Y receptor type 1; type: cell membranes
T1 sequence (P25929 whole entry): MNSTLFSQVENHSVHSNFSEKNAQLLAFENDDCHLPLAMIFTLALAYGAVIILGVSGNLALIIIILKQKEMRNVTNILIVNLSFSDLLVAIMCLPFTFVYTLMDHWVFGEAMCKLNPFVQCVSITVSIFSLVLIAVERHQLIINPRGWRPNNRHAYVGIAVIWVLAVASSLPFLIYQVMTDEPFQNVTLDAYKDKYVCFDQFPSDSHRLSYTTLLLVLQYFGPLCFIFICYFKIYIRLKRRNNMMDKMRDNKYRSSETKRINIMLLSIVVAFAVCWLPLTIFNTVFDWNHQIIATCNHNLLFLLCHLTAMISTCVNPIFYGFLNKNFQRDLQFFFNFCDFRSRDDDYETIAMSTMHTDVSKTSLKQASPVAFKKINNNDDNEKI

[2] = target: T2, Neuropeptide Y receptor type 5 (Homo sapiens, UniProt Q15761); assay: Tested for radioligand binding affinity against membranes from COS-7 cells transiently transfected with Neuropeptide Y receptor type 5; type: cell membranes
T2 sequence (Q15761 whole entry): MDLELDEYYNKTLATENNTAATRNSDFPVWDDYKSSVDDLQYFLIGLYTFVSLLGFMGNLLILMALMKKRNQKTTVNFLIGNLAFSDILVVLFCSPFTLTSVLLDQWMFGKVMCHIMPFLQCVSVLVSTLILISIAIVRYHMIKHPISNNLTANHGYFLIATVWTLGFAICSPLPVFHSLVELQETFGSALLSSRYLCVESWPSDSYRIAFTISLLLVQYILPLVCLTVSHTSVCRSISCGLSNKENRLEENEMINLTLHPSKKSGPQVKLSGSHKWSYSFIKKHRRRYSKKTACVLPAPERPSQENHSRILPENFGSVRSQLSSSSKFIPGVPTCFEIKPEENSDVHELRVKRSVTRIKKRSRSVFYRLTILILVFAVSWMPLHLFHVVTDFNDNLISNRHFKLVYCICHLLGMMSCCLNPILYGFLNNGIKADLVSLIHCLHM

[3] = target: T3, Alpha-2C adrenergic receptor (Homo sapiens, UniProt P18825); assay: Bnding affinity against cloned human Alpha-2C adrenergic receptor was evaluated
T3 sequence (P18825 whole entry): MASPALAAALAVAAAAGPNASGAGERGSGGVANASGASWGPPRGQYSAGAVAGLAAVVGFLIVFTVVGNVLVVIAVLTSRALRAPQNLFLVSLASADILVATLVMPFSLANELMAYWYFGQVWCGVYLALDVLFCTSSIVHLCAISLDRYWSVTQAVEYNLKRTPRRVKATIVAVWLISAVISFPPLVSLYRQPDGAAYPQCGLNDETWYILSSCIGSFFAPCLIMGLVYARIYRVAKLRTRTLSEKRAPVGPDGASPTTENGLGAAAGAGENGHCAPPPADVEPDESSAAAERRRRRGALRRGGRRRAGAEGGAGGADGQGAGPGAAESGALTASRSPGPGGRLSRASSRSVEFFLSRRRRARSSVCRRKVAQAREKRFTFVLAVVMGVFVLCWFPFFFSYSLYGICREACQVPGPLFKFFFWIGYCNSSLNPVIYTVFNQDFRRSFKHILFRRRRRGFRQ

[4] = target: D(2) dopamine receptor (Homo sapiens, UniProt P14416); assay: Binding affinity against cloned human Dopamine receptor D2 was evaluated
[5] = target: T4, Neuropeptide Y receptor type 1 (Rattus norvegicus, UniProt P21555); assay: Functional response of NPY to inhibit forskolin-stimulated cAMP in cells stably transfected with Neuropeptide Y receptor type 1
T4 sequence (P21555 whole entry): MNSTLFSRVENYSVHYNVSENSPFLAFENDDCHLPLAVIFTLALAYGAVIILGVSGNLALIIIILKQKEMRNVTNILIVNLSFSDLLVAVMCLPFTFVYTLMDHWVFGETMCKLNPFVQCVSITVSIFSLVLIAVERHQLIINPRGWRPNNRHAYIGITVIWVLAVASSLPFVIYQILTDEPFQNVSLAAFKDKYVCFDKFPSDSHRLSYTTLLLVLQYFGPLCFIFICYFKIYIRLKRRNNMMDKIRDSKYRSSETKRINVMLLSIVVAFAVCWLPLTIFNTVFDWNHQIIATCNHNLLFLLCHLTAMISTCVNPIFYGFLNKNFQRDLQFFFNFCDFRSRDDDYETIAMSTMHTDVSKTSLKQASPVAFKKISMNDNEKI

[6] = target: T5, Neuropeptide Y receptor type 5 (Rattus norvegicus, UniProt Q63634); assay: Functional response of NPY to inhibit forskolin-stimulated cAMP in cells stably transfected with rat Neuropeptide Y receptor type 5
T5 sequence (Q63634 whole entry): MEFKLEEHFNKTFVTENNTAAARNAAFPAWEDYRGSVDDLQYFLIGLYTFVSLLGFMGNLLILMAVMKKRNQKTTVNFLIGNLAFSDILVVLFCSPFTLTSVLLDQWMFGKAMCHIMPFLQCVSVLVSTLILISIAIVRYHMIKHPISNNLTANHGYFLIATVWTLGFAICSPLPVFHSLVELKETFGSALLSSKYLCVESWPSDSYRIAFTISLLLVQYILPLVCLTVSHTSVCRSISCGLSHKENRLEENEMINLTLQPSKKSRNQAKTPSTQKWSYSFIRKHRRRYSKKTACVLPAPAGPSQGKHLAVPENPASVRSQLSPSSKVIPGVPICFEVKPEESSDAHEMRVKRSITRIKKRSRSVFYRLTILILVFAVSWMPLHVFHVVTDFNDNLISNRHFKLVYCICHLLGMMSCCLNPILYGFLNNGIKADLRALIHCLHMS

Sequence of D(2) dopamine receptor (P14416 whole entry): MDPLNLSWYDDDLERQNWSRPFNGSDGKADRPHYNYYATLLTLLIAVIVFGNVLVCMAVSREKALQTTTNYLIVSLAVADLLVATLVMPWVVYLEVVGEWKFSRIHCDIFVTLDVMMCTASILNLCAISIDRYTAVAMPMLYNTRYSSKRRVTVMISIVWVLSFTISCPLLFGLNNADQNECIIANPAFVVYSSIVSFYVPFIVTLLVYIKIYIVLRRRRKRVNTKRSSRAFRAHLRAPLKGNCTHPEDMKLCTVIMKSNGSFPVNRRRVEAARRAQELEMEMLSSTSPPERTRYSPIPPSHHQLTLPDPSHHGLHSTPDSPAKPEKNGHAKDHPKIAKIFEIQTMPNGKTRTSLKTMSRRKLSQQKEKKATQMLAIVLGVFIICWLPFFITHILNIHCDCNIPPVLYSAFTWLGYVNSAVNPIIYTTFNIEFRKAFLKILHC

Row | SMILES | pKi [1] | pKi [2] | pKi [3] | pKi [4] | pKi [5] | pKi [6]
1 | Nc1ccccc1S(=O)(=O)NC[C@H]1CC[C@H](CNCC2CCc3ccccc3C2)CC1 (some centres undefined) | 4.77 | 8.00 |  |  |  | 
2 | O=[N+]([O-])c1ccccc1S(=O)(=O)NC[C@H]1CC[C@H](CNCC2CCc3ccccc3C2)CC1 (some centres undefined) | 4.80 | 8.10 | 7.00 | 7.20 | 4.66 | 7.74
3 | O=[N+]([O-])c1ccccc1S(=O)(=O)NC[C@H]1CC[C@H](CNCc2ccnc3ccccc23)CC1 | 4.31 | 7.55 |  |  |  | 
4 | O=S(=O)(NCCCCCCNCc1ccc2ccccc2c1)c1ccc2ccccc2c1 | 5.14 | 6.91 |  |  |  | 
5 | O=[N+]([O-])c1ccccc1S(=O)(=O)NC[C@H]1CC[C@H](CNCc2ccc3ccccc3n2)CC1 | 4.62 |  |  |  |  | 
6 | O=S(=O)(NC[C@H]1CC[C@H](CNCc2ccc3ccccc3c2)CC1)c1ccccc1C(F)(F)F | 4.89 | 8.00 |  |  |  | 
7 | O=S(=O)(NC[C@H]1CC[C@H](CNCc2cccc3ccccc23)CC1)c1ccccc1C(F)(F)F | 4.84 | 7.59 |  |  |  | 
8 | O=S(=O)(NC[C@H]1CC[C@H](CNCC2CCc3ccccc3C2)CC1)c1cccc2ccccc12 (some centres undefined) | 5.45 | 7.96 |  |  |  | 
